Source: ChEMBL document CHEMBL3853314, “G-Protein-Coupled Receptor Kinase 2 (GRK2) Inhibitors: Current Trends and Future Perspectives” (J Med Chem, 2016)
Peptide text beside a SMILES is read from it.

Columns and labels:
[1] = target: G protein-coupled receptor kinase 5 (Homo sapiens, UniProt P34947); test: Inhibition of recombinant human GRK5 expressed in Sf9 insect cells assessed as decrease in phosphorylation of urea-washed bovine rod outer segments in presence of Gbetagamma subunits and [gamma-32P]-ATP after 5 to 60 mins by SDS-PAGE analysis
G protein-coupled receptor kinase 5, sequence (P34947 whole entry): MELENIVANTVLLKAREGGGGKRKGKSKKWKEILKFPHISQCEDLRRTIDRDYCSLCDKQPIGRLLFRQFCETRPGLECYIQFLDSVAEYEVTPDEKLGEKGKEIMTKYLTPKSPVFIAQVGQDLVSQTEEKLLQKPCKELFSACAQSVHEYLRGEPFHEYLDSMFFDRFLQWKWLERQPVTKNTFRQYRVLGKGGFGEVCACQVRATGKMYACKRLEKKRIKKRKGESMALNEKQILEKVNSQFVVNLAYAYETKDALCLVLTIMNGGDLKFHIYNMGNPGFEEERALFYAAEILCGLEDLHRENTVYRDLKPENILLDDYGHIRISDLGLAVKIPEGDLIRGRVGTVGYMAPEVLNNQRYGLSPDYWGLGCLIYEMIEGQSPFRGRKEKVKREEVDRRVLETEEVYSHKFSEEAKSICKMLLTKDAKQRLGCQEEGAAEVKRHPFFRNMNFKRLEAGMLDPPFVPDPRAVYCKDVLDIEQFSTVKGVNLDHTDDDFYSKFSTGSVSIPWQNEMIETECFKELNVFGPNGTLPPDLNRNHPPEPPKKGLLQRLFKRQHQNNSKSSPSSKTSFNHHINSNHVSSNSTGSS

[2] = target: Beta-adrenergic receptor kinase 1 (Bos taurus, UniProt P21146, S670A); test: Inhibition of bovine GRK2 expressed in Sf9 insect cells assessed as decrease in phosphorylation of urea-washed bovine rod outer segments in presence of Gbetagamma subunits and [gamma-32P]-ATP after 5 to 60 mins by SDS-PAGE analysis
Beta-adrenergic receptor kinase 1, sequence (P21146 whole entry S670A): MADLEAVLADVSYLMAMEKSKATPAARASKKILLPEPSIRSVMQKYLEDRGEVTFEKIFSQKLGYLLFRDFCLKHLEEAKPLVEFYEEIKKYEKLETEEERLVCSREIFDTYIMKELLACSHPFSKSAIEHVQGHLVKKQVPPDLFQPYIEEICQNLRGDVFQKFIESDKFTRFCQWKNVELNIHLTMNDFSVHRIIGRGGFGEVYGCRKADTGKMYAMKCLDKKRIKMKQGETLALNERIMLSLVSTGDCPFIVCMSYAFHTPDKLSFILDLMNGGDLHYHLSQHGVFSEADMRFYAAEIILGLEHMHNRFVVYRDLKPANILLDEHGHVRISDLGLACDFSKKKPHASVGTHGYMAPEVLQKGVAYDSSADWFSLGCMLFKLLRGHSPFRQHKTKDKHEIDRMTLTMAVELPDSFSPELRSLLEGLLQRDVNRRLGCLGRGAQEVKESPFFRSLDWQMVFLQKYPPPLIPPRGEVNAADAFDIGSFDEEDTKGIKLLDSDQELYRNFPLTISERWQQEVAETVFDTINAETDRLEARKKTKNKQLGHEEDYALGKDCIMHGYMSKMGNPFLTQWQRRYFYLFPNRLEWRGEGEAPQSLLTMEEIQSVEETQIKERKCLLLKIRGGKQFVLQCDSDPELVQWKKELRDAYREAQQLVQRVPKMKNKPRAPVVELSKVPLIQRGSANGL

[3] = target: T1, G protein-coupled receptor kinase 3 (Bos taurus, UniProt P26818); test: Inhibition of recombinant bovine GRK3 expressed in Sf9 insect cells assessed as decrease in phosphorylation of urea-washed bovine rod outer segments in presence of Gbetagamma subunits and [gamma-32P]-ATP after 5 to 60 mins by SDS-PAGE analysis
T1 sequence (P26818 whole entry): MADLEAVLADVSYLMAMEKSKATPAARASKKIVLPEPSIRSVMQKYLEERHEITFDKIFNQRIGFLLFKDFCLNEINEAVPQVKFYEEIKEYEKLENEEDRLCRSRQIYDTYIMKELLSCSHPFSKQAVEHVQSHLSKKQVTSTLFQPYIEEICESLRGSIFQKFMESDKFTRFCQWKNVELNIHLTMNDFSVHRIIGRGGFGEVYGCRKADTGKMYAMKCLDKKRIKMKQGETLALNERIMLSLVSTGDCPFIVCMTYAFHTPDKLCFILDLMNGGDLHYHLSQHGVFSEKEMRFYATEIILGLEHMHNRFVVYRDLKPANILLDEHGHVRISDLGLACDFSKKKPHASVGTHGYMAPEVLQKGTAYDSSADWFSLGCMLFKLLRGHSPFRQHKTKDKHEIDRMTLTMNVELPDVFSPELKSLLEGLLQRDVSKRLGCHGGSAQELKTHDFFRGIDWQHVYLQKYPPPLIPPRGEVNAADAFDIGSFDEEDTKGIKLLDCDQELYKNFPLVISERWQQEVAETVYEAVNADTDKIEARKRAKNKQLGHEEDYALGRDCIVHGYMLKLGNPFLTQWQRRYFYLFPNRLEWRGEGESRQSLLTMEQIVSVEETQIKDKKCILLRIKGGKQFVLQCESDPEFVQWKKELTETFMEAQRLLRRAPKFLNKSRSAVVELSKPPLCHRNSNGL

[4] = Inhibition of PKA (unknown origin) using LRRASLG as substrate incubated for 30 mins by ADP-Glo assay; parameters: species or system Homo sapiens

CC[C@H](C)[C@H](NC(=O)[C@H](Cc1ccccc1)NC(=O)[C@H](Cc1ccc(O)cc1)NC(=O)[C@H](CC(N)=O)NC(=O)[C@@H](NC(=O)[C@@H](NC(=O)[C@@H](NC(=O)[C@H](CCC(N)=O)NC(=O)[C@H](CC(C)C)NC(=O)[C@H](CCCNC(=N)N)NC(=O)[C@H](CCC(=O)O)NC(=O)[C@H](Cc1ccccc1)NC(=O)[C@H](CCCCN)NC(=O)[C@H](C)N)[C@@H](C)O)C(C)C)[C@@H](C)O)C(=O)N[C@H](C(=O)N[C@@H](CO)C(=O)N[C@@H](CCCCN)C(=O)O)[C@@H](C)O (H-AKFERLQTVTNYFITSK-OH)
IC50 [1]: 9.4 µM
IC50 [2]: 32.2 µM
IC50 [3]: 55.5 µM

CC[C@H](C)[C@H](NC(=O)[C@H](C)NC(=O)[C@@H](NC(=O)[C@@H](N)CCCCN)[C@@H](C)O)C(=O)N[C@@H](C)C(=O)N[C@@H](CCCCN)C(=O)N[C@@H](Cc1ccccc1)C(=O)N[C@@H](CCC(=O)O)C(=O)N[C@@H](CCCNC(=N)N)C(=O)N[C@@H](CC(C)C)C(=O)N[C@@H](CCC(N)=O)C(=O)N[C@H](C(=O)N[C@H](C(=O)N[C@H](C(=O)N[C@@H](CC(N)=O)C(=O)N[C@@H](Cc1ccc(O)cc1)C(=O)N[C@@H](Cc1ccccc1)C(=O)N[C@H](C(=O)N[C@H](C(=O)N[C@@H](CO)C(=O)N[C@@H](CCCCN)C(=O)O)[C@@H](C)O)[C@@H](C)CC)[C@@H](C)O)C(C)C)[C@@H](C)O (H-KTAIAKFERLQTVTNYFITSK-OH)
IC50 [1]: 61.3 µM
IC50 [2]: 36.5 µM
IC50 [3]: 30.4 µM

CC[C@H](C)[C@H](NC(=O)[C@H](Cc1ccccc1)NC(=O)[C@H](Cc1ccc(O)cc1)NC(=O)[C@H](CC(N)=O)NC(=O)[C@@H](NC(=O)[C@@H](NC(=O)[C@@H](NC(=O)[C@H](CCC(N)=O)NC(=O)[C@H](CC(C)C)NC(=O)[C@H](CCCNC(=N)N)NC(=O)[C@H](CCC(=O)O)NC(=O)[C@H](Cc1ccccc1)NC(=O)[C@H](CCCCN)NC(=O)[C@H](C)N)[C@@H](C)O)C(C)C)[C@@H](C)O)C(=O)N[C@H](C(=O)N[C@@H](CO)C(=O)N[C@@H](CCC(=O)O)C(=O)O)[C@@H](C)O (H-AKFERLQTVTNYFITSE-OH)
IC50 [1]: 1.6 µM
IC50 [2]: 0.6 µM
IC50 [3]: 1.5 µM

CC1=C(C(=O)Nc2ccc3[nH]ncc3c2)C(c2ccc(Cl)c(Cl)c2)CC(=O)N1 (stereo not drawn) [GSK-299115A]
IC50 [4]: 63.1 µM

CC1=C(C(=O)Nc2ccc3[nH]ncc3c2)C(c2ccc(F)cc2)NC(=O)N1 (stereo not drawn) [GSK-180736A]
IC50 [4]: > 500 µM

CC[C@H](C)[C@H](NC(=O)[C@H](C)NC(=O)[C@@H](NC(=O)[C@@H](N)CCCCN)[C@@H](C)O)C(=O)N[C@@H](C)C(=O)N[C@@H](CCCCN)C(=O)N[C@@H](Cc1ccccc1)C(=O)N[C@@H](CCC(=O)O)C(=O)N[C@@H](CCCNC(=N)N)C(=O)N[C@@H](CC(C)C)C(=O)N[C@@H](CCC(N)=O)C(=O)N[C@H](C(=O)N[C@H](C(=O)N[C@H](C(=O)N[C@@H](CC(N)=O)C(=O)O)[C@@H](C)O)C(C)C)[C@@H](C)O (H-KTAIAKFERLQTVTN-OH)
IC50 [1]: 2.1 µM
IC50 [2]: 5.6 µM
IC50 [3]: 11.6 µM

CC[C@H](C)[C@H](NC(=O)[C@H](C)NC(=O)[C@@H](NC(=O)[C@@H](N)CCC(=O)O)[C@@H](C)O)C(=O)N[C@@H](C)C(=O)N[C@@H](CCCCN)C(=O)N[C@@H](Cc1ccccc1)C(=O)N[C@@H](CCC(=O)O)C(=O)N[C@@H](CCCNC(=N)N)C(=O)N[C@@H](CC(C)C)C(=O)N[C@@H](CCC(N)=O)C(=O)N[C@H](C(=O)N[C@H](C(=O)N[C@H](C(=O)N[C@@H](CC(N)=O)C(=O)N[C@@H](Cc1ccc(O)cc1)C(=O)N[C@@H](Cc1ccccc1)C(=O)N[C@H](C(=O)N[C@H](C(=O)N[C@@H](CO)C(=O)N[C@@H](CCCCN)C(=O)O)[C@@H](C)O)[C@@H](C)CC)[C@@H](C)O)C(C)C)[C@@H](C)O (H-ETAIAKFERLQTVTNYFITSK-OH)
IC50 [1]: 7.4 µM
IC50 [2]: 52.2 µM
IC50 [3]: 22.6 µM

CC1=C(C(=O)Nc2ccc3[nH]ncc3c2)C(c2ccc3ccccc3c2)CC(=O)N1 (stereo not drawn) [GSK-270822A]
IC50 [4]: 50.1 µM
